Source: US20030190378A1, “Extract of processed Panax genus plant, the preparation method thereof, and compositions containing the same” (priority 2002, published 2003)

Key:
[1] = tested on: ICR mouse; assay: Passive cutaneous anaphylaxis test (Evans blue leakage); format: in vivo; conditions: for anti-allergic effect in words, passive cutaneous anaphylaxis: Tables 5 and 6
Protocol: 50 μl of diluted solution with physiological saline containing 10 μg of mouse IgE serum against dinitrophenol-human serum album (DNP-HSA, Sigma, USA), was injected to the back of ICR mouse (Dae Han Co., Ltd) anesthetized with ether to be passive sensitization. After 48 hours, 0.2 ml of physiological saline solution containing 0.2 mg of DNP-HSA and 1.6 mg of Evans blue was injected to the mouse's tail vein and the mouse was sacrificed by cervical dislocation to death and then the amount of Evans blue dye leaked to mouse's back was measured as follows. Certain circular area of mouse's back distant from the area where IGE injected about 1 cm^2 far, was cut and put into a test tube. 4 ml of mixture solution of 0.6M phosphoric acid and acetone with a ratio of 5:13 was added to the tube, stirred and filtered. The amount of dye was measured by colorimetric analysis at 620 nm.

[2] = tested on: RBL-2H3 cell line; assay: Anti-allergic effect using IgE-sensitized, DNP-BSA-activated RBL-2H3 cell line (p-NAG substrate readout); format: cell-based, rat; conditions: for Anti-allergic effect in RBL cell IC50 / IC50: Table 4, saponin fractions and isolated saponins; for anti-allergic effect in words, allergy inhibition test using RBL-2H3 cell line: Tables 3 and 4; for IC50: Rattus norvegicus
Protocol: In order to confirm the anti-allergic effect of the extracts in the present invention, the experiment was performed by the procedure described in the literature (Inagaki. et al., Int, Arch. Allergy Appl. Immunol., 87, pp254-259, 1988).
RBL-2H3 cell line (rat basophil cell line, Korean Cell Line Bank, Cat. No.22256) were incubated with DMEM (Dulbecco's modified Eagle's) medium (Sigma No. D-5648, USA) containing 10% FBS (Fetal Bovine Serum), L-glutamine for 2 hours at 37° C. by using humidified 5% CO2 incubator and attached cells were floated by trypsin-EDTA solution, separated and recovered to use in further experiment. Each RBL-2H3 cells were transferred to 24 well plate to be adjusted to 5×10^5 cells/well, treated with 0.5 μg of mouse monoclonal IgE and incubated for 12 hours to be sensitization. The cell was washed with 0.5 ml of siraganian buffer solution (pH 7.2) composed of 119 mM NaCl, 5 mM KCl, 0.4 mM MgCl2, 25 mM PIPES and 40 mM NaOH. 0.16 ml of siraganian buffer solution containing 5.5 mM glucose, 1 mM CaCl2 and 0.1% BSA, was added thereto again and incubated for 10 minutes at 37° C. Thereafter, 40 μl of test sample solution containing the extract in the Comparative Example 1, 2, 3 and Example 1, 2, 3 were added thereto. After 20 minutes, the cells were activated by adding 0.02 ml of antigen, 1 μg/ml of DNP-BSA, for 10 minutes at 37° C., centrifuged at the speed of 2000 rpm for 10 minutes and 0.025 ml of the supernatant was transferred to 96 well plate. 0.025 ml of 1 mM p-NAG substrate solution prepared by dissolving p-nitrophenyl-N-acetyl-β-D-glucosaminide with 0.1M citrate buffer solution adjusted to pH 4.5, was added thereto, incubated for 60 minutes at 37° C. and 0.2 ml of 0.1M Na2CO3/NaHCO3 was added thereto to quench the reaction to measure their optical density at 405 nm by ELISA analyzer.

| Compound | Passive cutaneous anaphylaxis Inhibitory rate (%) Abdominal administration ([1]; Table 6, 25 mg/kg abdominal) [%] | Anti-allergic effect in RBL cell IC50 [2] [µg/mL] | also measured |
| --- | --- | --- | --- |
| CC(C)=CCC=C(C)[C@H]1CC[C@]2(C)[C@@H]1[C@H](O)C[C@@H]1[C@@]3(C)CC[C@H](O)C(C)(C)[C@@H]3[C@@H](O[C@@H]3O[C@H](CO)[C@@H](O)[C@H](O)[C@H]3O[C@@H]3O[C@@H](C)[C@H](O)[C@@H](O)[C@H]3O)C[C@]12C (stereo in doubt) [Ginsenoside F4] | 63 |  |  |
| CC(C)=CCC[C@@](C)(O)[C@H]1CC[C@]2(C)[C@@H]1[C@H](O)C[C@@H]1[C@@]3(C)CC[C@H](O[C@@H]4O[C@H](CO)[C@@H](O)[C@H](O)[C@H]4O)C(C)(C)[C@@H]3CC[C@]12C [20(R)-ginsenoside Rh2] |  | >0.2 |  |
| CC(C)=CCC[C@@](C)(O)[C@H]1CC[C@]2(C)[C@@H]1[C@H](O)C[C@@H]1[C@@]3(C)CC[C@H](O)C(C)(C)[C@@H]3CC[C@]12C [20(R)-protopanaxadiol] |  | >0.2 |  |
| CC(C)=CCC[C@](C)(O)[C@H]1CC[C@]2(C)[C@@H]1[C@H](O)C[C@@H]1[C@@]3(C)CC[C@H](O[C@@H]4O[C@H](CO)[C@@H](O)[C@H](O)[C@H]4O[C@@H]4O[C@H](CO)[C@@H](O)[C@H](O)[C@H]4O)C(C)(C)[C@@H]3CC[C@]12C [20(S)-ginsenoside Rg3] |  | >0.2 |  |
| CC(C)=CCC[C@](C)(O)[C@H]1CC[C@]2(C)[C@@H]1[C@H](O)C[C@@H]1[C@@]3(C)CC[C@H](O[C@@H]4O[C@H](CO)[C@@H](O)[C@H](O)[C@H]4O)C(C)(C)[C@@H]3CC[C@]12C [20(S)-ginsenoside Rh2] |  | 0.03 |  |
| CC(C)=CCC[C@](C)(O)[C@H]1CC[C@]2(C)[C@@H]1[C@H](O)C[C@@H]1[C@@]3(C)CC[C@H](O)C(C)(C)[C@@H]3CC[C@]12C [20(S)-protopanaxadiol] |  | >0.2 |  |
| O=C([O-])c1cc(=O)c2c(OCC(O)COc3cccc4oc(C(=O)[O-])cc(=O)c34)cccc2o1.[Na+].[Na+] [DSCG, Disodium Cromoglycate, reference compound] |  | 0.498 | Passive cutaneous anaphylaxis Inhibitory rate (%) ([1]; Table 5, 100 mg/kg): 37%; Passive cutaneous anaphylaxis Inhibitory rate (%) Oral administration ([1]; Table 6, 100 mg/kg oral): 37% |
| CC(C)=CC/C=C(\C)[C@H]1CC[C@]2(C)[C@@H]1[C@H](O)C[C@@H]1[C@@]3(C)CC[C@H](O[C@@H]4O[C@H](CO)[C@@H](O)[C@H](O)[C@H]4O[C@@H]4O[C@H](CO)[C@@H](O)[C@H](O)[C@H]4O)C(C)(C)[C@@H]3CC[C@]12C [Gginsenoside Rg5, ginsenoside Rg5] | 45 |  |  |
| CC(C)=CCC[C@](C)(O[C@@H]1O[C@H](CO)[C@@H](O)[C@H](O)[C@H]1O)[C@H]1CC[C@]2(C)[C@@H]1[C@H](O)C[C@@H]1[C@@]3(C)CC[C@H](O)C(C)(C)[C@@H]3[C@@H](O)C[C@]12C [Ginsenoside F1] | 69 | 0.13 | anti-allergic effect in words, allergy inhibition test using RBL-2H3 cell line [2]: more potent inhibition effect than that of DSCG; anti-allergic effect in words, passive cutaneous anaphylaxis [1]: more potent inhibitory effects than that of DSCG |
| CC(C)=CCC[C@](C)(O[C@@H]1O[C@H](CO[C@@H]2O[C@H](CO)[C@@H](O)[C@H](O)[C@H]2O)[C@@H](O)[C@H](O)[C@H]1O)[C@H]1CC[C@]2(C)[C@@H]1[C@H](O)C[C@@H]1[C@@]3(C)CC[C@H](O[C@@H]4O[C@H](CO)[C@@H](O)[C@H](O)[C@H]4O[C@@H]4O[C@H](CO)[C@@H](O)[C@H](O)[C@H]4O)C(C)(C)[C@@H]3CC[C@]12C [Ginsenoside Rb1] |  | >0.2 | Passive cutaneous anaphylaxis Inhibitory rate (%) Abdominal administration ([1]; Table 6, 50 mg/kg abdominal): 17% |
| CC(C)=CCC[C@](C)(O[C@@H]1O[C@H](CO[C@@H]2OC[C@H](O)[C@H](O)[C@H]2O)[C@@H](O)[C@H](O)[C@H]1O)[C@H]1CC[C@]2(C)[C@@H]1[C@H](O)C[C@@H]1[C@@]3(C)CC[C@H](O[C@@H]4O[C@H](CO)[C@@H](O)[C@H](O)[C@H]4O[C@@H]4O[C@H](CO)[C@@H](O)[C@H](O)[C@H]4O)C(C)(C)[C@@H]3CC[C@]12C [Ginsenoside Rb2] | 12 | >0.2 |  |
| CC(C)=CCC[C@](C)(O[C@@H]1O[C@H](CO)[C@@H](O)[C@H](O)[C@H]1O)[C@H]1CC[C@]2(C)[C@@H]1[C@H](O)C[C@@H]1[C@@]3(C)CC[C@H](O)C(C)(C)[C@@H]3[C@@H](O[C@@H]3O[C@H](CO)[C@@H](O)[C@H](O)[C@H]3O[C@@H]3O[C@@H](C)[C@H](O)[C@@H](O)[C@H]3O)C[C@]12C [Ginsenoside Re] | 15 |  | IC50 [2]: 0.06 µg/mL |
| CC(C)=CCC[C@](C)(O)[C@H]1CC[C@]2(C)[C@@H]1[C@H](O)C[C@@H]1[C@@]3(C)CC[C@H](O)C(C)(C)[C@@H]3[C@@H](O[C@@H]3O[C@H](CO)[C@@H](O)[C@H](O)[C@H]3O[C@@H]3O[C@H](CO)[C@@H](O)[C@H](O)[C@H]3O)C[C@]12C [Ginsenoside Rf] | 40 |  | IC50 [2]: 0.11 µg/mL |
| CC(C)=CCC[C@](C)(O[C@@H]1O[C@H](CO)[C@@H](O)[C@H](O)[C@H]1O)[C@H]1CC[C@]2(C)[C@@H]1[C@H](O)C[C@@H]1[C@@]3(C)CC[C@H](O)C(C)(C)[C@@H]3[C@@H](O[C@@H]3O[C@H](CO)[C@@H](O)[C@H](O)[C@H]3O)C[C@]12C [Ginsenoside Rg1] | 37 | 0.08 |  |
| CC(C)=CCC[C@](C)(O)[C@H]1CC[C@]2(C)[C@@H]1[C@H](O)C[C@@H]1[C@@]3(C)CC[C@H](O[C@@H]4O[C@H](CO)[C@@H](O)[C@H](O)[C@H]4O[C@@H]4O[C@H](CO)[C@@H](O)[C@H](O)[C@H]4O)C(C)(C)[C@@H]3CC[C@]12C [Ginsenoside Rg3] |  |  | Passive cutaneous anaphylaxis Inhibitory rate (%) Abdominal administration ([1]; Table 6, abdominal, dosage cell empty): 47%; Passive cutaneous anaphylaxis Inhibitory rate (%) Oral administration ([1]; Table 6, oral, dosage cell empty): 38% |
| CC(C)=CCC[C@](C)(O)[C@H]1CC[C@]2(C)[C@@H]1[C@H](O)C[C@@H]1[C@@]3(C)CC[C@H](O)C(C)(C)[C@@H]3[C@@H](O[C@@H]3O[C@H](CO)[C@@H](O)[C@H](O)[C@H]3O)C[C@]12C [Ginsenoside Rh1] | 87 | 0.02 | anti-allergic effect in words, allergy inhibition test using RBL-2H3 cell line [2]: more potent inhibition effect than that of DSCG; Passive cutaneous anaphylaxis Inhibitory rate (%) Oral administration ([1]; Table 6, 25 mg/kg oral): 79%; anti-allergic effect in words, passive cutaneous anaphylaxis [1]: more potent inhibitory effects than that of DSCG |
| CC(C)=CCC[C@](C)(O)[C@H]1CC[C@]2(C)[C@@H]1[C@H](O)C[C@@H]1[C@@]3(C)CC[C@H](O[C@@H]4O[C@H](CO)[C@@H](O)[C@H](O)[C@H]4O)C(C)(C)[C@@H]3CC[C@]12C [Ginsenoside Rh2] | 88 |  | anti-allergic effect in words, allergy inhibition test using RBL-2H3 cell line [2]: more potent inhibition effect than that of DSCG; Passive cutaneous anaphylaxis Inhibitory rate (%) Oral administration ([1]; Table 6, 25 mg/kg oral): 36%; anti-allergic effect in words, passive cutaneous anaphylaxis [1]: more potent inhibitory effects than that of DSCG |
| CC(C)=CCC[C@@](C)(O)[C@H]1CC[C@]2(C)[C@@H]1[C@H](O)C[C@@H]1[C@@]3(C)CC[C@H](O)C(C)(C)[C@@H]3CC[C@]12C [protopanaxadiol] | 25 |  |  |
| Δ^20-ginsenoside Rg3 |  | 0.09 |  |
